Where two headings read alike, the source gives them in different places.
Experiments:
[1] = system: DU-145 cells; assay: Annexin V-FITC apoptosis assay, DU-145; assay type: cell-based, human; conditions: DU-145 cells exposed to IC50, 24 h; for percent of annexin V-FITC positive apoptotic cells (UR + LR): vehicle control 1.7%
[2] = system: DU-145 (prostate cancer); assay: NCI-60 single dose screen, DU-145; assay type: cell-based; conditions: Homo sapiens, DU-145, read-out: percent growth inhibition
[3] = system: full NCI 60-cell panel; assay: NCI-60 single dose screen, statements over several cell lines; assay type: cell-based, human; conditions: for inhibition at 10 µM: Homo sapiens
[4] = system: LOX IMVI (melanoma); assay: NCI-60 single dose screen, LOX IMVI; assay type: cell-based; conditions: Homo sapiens, read-out: percent growth inhibition
[5] = system: MCF7 (breast cancer); assay: NCI-60 single dose screen, MCF7; assay type: cell-based; conditions: Homo sapiens, MCF7, read-out: percent growth inhibition
[6] = system: DU-145 cell lines; assay: DNA-flow cytometry cell cycle analysis, DU-145; assay type: cell-based, human; conditions: DU-145, 24 h at IC50
[7] = system: SR (leukemia); assay: NCI-60 single dose screen, SR; assay type: cell-based; conditions: Homo sapiens, read-out: percent growth inhibition
[8] = system: IGROV1 (ovarian cancer); assay: NCI-60 single dose screen, IGROV1; assay type: cell-based; conditions: Homo sapiens, IGROV-1, read-out: percent growth inhibition
[9] = system: MCF-7 cells; assay: Annexin V-FITC apoptosis assay, MCF-7; assay type: cell-based, human; conditions: MCF-7 cells exposed to IC50, 24 h; for percentage of annexin V-FITC positive apoptotic cells (UR + LR): vehicle control 2.0%
[10] = system: MCF7 cell lines; assay: DNA-flow cytometry cell cycle analysis, MCF7; assay type: cell-based, human; conditions: MCF7, 24 h at IC50
[11] = system: NCI-H522 (non-small cell lung cancer); assay: NCI-60 single dose screen, NCI-H522; assay type: cell-based; conditions: Homo sapiens, NCI-H522, read-out: inhibitory activity (cell growth inhibition)
[12] = system: MCF-7 breast cancer cell line; assay: MTT assay for cell viability, MCF7; assay type: cell-based; conditions: Homo sapiens, MCF7, read-out: Cytotoxicity IC50 (µM ± SE) MCF7, MTT assay, MCF7
[13] = 60 cell, read-out: cell growth inhibition

Row | Compound | rise of annexin V-FITC positive apoptotic cells compared with vehicle control [1] | percent of annexin V-FITC positive apoptotic cells (UR + LR) [1] | inhibition at 10 µM [3, 13] | %G1 [6] | %G2/M [6] | increase of annexin V-FITC positive apoptotic cells compared with vehicle control [9] | percentage of annexin V-FITC positive apoptotic cells (UR + LR) [9] | %G1 [10] | %G2/M [10] | %Pre-G1 [10] | other results
1 | Cc1cc(=O)[nH]c(=O)n1Cc1cn(-c2c3ccccc3nc3ccccc23)nn1 [Compound 8, 1-((1-(Acridin-9-yl)-1H-1,2,3-triazol-4-yl)methyl)-6-methylpyrimidine-2,4(1H,3H)-dione] | sixfold | 10.2% | 61 to 97% | 34.6% | 39.6% | 10 fold | 20.3% | 24.4% | 48.3% | 24.4% | inhibition at 10 µM [2]: 84.3%; inhibition at 10 µM [4]: 84.8%; inhibition at 10 µM [5]: 97.5%; %Pre-G1 [6]: 12.9%; inhibition at 10 µM [7]: 88.6%; inhibition at 10 µM [8]: 67%
2 | O=c1ccn(Cc2cn(-c3c4ccccc4nc4ccccc34)nn2)c(=O)[nH]1 [Compound 9, 1-((1-(Acridin-9-yl)-1H-1,2,3-triazol-4-yl)methyl)pyrimidine-2,4(1H,3H)–dione] |  |  | 61 to 97% | 41.5% | 29.1% | 6.4 fold | 13% |  | 39.8% |  | inhibition at 10 µM ([3]; read-out: cell growth inhibition): 61.3 to 67%
3 | O=C1NC(c2ccccc2)(c2ccccc2)C(=O)N1Cc1cn(-c2c3ccccc3nc3ccccc23)nn1 [Compound 10, 3-((1-(Acridin-9-yl)-1H-1,2,3-triazol-4-yl)methyl)-5,5-diphenylimidazolidine-2,4-dione] | 2 fold | 3.6% | 61 to 97% | 42.9% | 20.9% | 5.3 fold | 10.7% | 43.5% | 15.3% | 13.2% | inhibition at 10 µM ([3]; read-out: cell growth inhibition percent): 60.8 to 68.6%; inhibition at 10 µM [11]: 84.1%
4 | CCCC(CCC)C(=O)OCc1cn(-c2c3ccccc3nc3ccccc23)nn1 [Compound 12, 1-(1-(Acridin-9-yl)-1H-1,2,3-triazol-4-yl)methyl valproate] |  |  |  |  |  |  |  |  |  |  | cell growth inhibition (in words) ([3]; against all cancer cell lines, single dose of 10 μM): either low or complete absence of cell growth inhibition
5 | COc1cccc2c1C(=O)c1c(O)c3c(c(O)c1C2=O)C[C@@](O)(C(=O)CO)C[C@@H]3O[C@H]1C[C@H](N)[C@H](O)[C@H](C)O1 [Doxorubicin] |  |  |  |  |  |  |  |  |  |  | IC50 [12]: 2 µM
